Results published in ChEMBL document CHEMBL5247680, “Design, Synthesis, and Biological Activity of Thioguanine-Modified Pleuromutilin Derivatives” (ACS Med Chem Lett, 2023).
In brackets after ≈: the same amount, converted by molar mass.

Columns and labels:
Staphylococcus aureus [1] = assay: Antibacterial activity against Methicillin-resistant Staphylococcus aureus ATCC 33591 assessed as bacterial growth inhibition incubated for 20 to 24 hrs by microbroth serial dilution assay; assay type: functional; conditions: time 20-24 hrs
Staphylococcus aureus [2] = assay: Antibacterial activity against Methicillin-resistant Staphylococcus aureus ATCC 43300 assessed as bacterial growth inhibition incubated for 20 to 24 hrs by microbroth serial dilution assay; assay type: functional; conditions: time 20-24 hrs
[3] = system: Staphylococcus epidermidis; assay: Antibacterial activity against Methicillin-resistant Staphylococcus epidermidis ATCC 51625 assessed as bacterial growth inhibition incubated for 20 to 24 hrs by microbroth serial dilution assay; assay type: functional; conditions: time 20-24 hrs
[4] = system: Staphylococcus epidermidis; assay: Antibacterial activity against Methicillin-sensitive Staphylococcus epidermidis ATCC 12228 assessed as bacterial growth inhibition incubated for 20 to 24 hrs by microbroth serial dilution assay; assay type: functional; conditions: time 20-24 hrs
Staphylococcus aureus [5] = assay: Antibacterial activity against Staphylococcus aureus ATCC 25923 assessed as bacterial growth inhibition incubated for 20 to 24 hrs by microbroth serial dilution assay; assay type: functional; conditions: time 20-24 hrs
[6] = system: Staphylococcus epidermidis; assay: Selectivity ratio of MBC for antibacterial activity against Methicillin-sensitive Staphylococcus epidermidis […] to MIC for antibacterial activity against Methicillin-sensitive Staphylococcus epidermidis […]; assay type: functional
Staphylococcus aureus [7] = assay: Selectivity ratio of MBC for antibacterial activity against Staphylococcus aureus to MIC for antibacterial activity against Staphylococcus aureus; assay type: functional
Staphylococcus aureus [8] = assay: Antibacterial activity against Methicillin-sensitive Staphylococcus aureus ATCC 29213 assessed as bacterial growth inhibition incubated for 20 to 24 hrs by microbroth serial dilution assay
Staphylococcus aureus [9] = assay: Selectivity ratio of MBC for antibacterial activity against Methicillin-sensitive Staphylococcus aureus ATCC 29213 to MIC for antibacterial activity against Methicillin-sensitive Staphylococcus aureus ATCC 29213
[10] = system: Staphylococcus epidermidis; assay: Selectivity ratio of MBC for antibacterial activity against Methicillin-resistant Staphylococcus epidermidis ATCC 51625 to MIC for antibacterial activity against Methicillin-resistant Staphylococcus epidermidis ATCC 51625; assay type: functional

Structure (SMILES)	MIC (Staphylococcus aureus [1])	MIC (Staphylococcus aureus [2])	MIC [3]	MIC [4]	MIC (Staphylococcus aureus [5])	Ratio [6]	Ratio (Staphylococcus aureus [7])	MIC (Staphylococcus aureus [8])	Ratio (Staphylococcus aureus [9])	Ratio [10]
C=C[C@]1(C)C[C@@H](OC(=O)CSc2nc(NC(=O)CN3CCCCC3)nc3[nH]cnc23)[C@@]2(C)C3C(=O)CC[C@@]3(CC[C@H]2C)[C@@H](C)[C@@H]1O (some centres undefined)	0.125 µg/mL (≈ 0.191 µM)	0.125 µg/mL (≈ 0.191 µM)	0.5 µg/mL (≈ 0.766 µM)	0.5 µg/mL (≈ 0.766 µM)	0.0625 µg/mL (≈ 0.0957 µM)	>4	>4	0.25 µg/mL (≈ 0.383 µM)	–	–
C=C[C@]1(C)C[C@@H](OC(=O)CSc2nc(N)nc3c2ncn3C(=O)OC)[C@@]2(C)C3C(=O)CC[C@@]3(CC[C@H]2C)[C@@H](C)[C@@H]1O (some centres undefined)	0.125 µg/mL (≈ 0.213 µM)	0.125 µg/mL (≈ 0.213 µM)	0.125 µg/mL (≈ 0.213 µM)	0.0625 µg/mL (≈ 0.107 µM)	0.125 µg/mL (≈ 0.213 µM)	>4	>4	0.5 µg/mL (≈ 0.854 µM)	–	–
C=C[C@]1(C)C[C@@H](OC(=O)CSc2nc(NC(=O)CN3CCN(C)CC3)nc3[nH]cnc23)[C@@]2(C)C3C(=O)CC[C@@]3(CC[C@H]2C)[C@@H](C)[C@@H]1O (some centres undefined)	16 µg/mL (≈ 24 µM)	32 µg/mL (≈ 47.9 µM)	1 µg/mL (≈ 1.5 µM)	4 µg/mL (≈ 5.99 µM)	16 µg/mL (≈ 24 µM)	>4	>4	8 µg/mL (≈ 12 µM)	4	–
C=C[C@]1(C)C[C@@H](OC(=O)CSc2nc(N)nc3c2ncn3C(=O)NCc2cccc([N+](=O)[O-])c2)[C@@]2(C)C3C(=O)CC[C@@]3(CC[C@H]2C)[C@@H](C)[C@@H]1O (some centres undefined)	0.0312 µg/mL (≈ 0.0443 µM)	0.0625 µg/mL (≈ 0.0885 µM)	0.0625 µg/mL (≈ 0.0885 µM)	< 0.0078 µg/mL	0.0625 µg/mL (≈ 0.0885 µM)	>4	>4	0.0625 µg/mL (≈ 0.0885 µM)	4	–
C=C[C@]1(C)C[C@@H](OC(=O)CSc2nc(NC(=O)CCl)nc3[nH]cnc23)[C@@]2(C)C3C(=O)CC[C@@]3(CC[C@H]2C)[C@@H](C)[C@@H]1O (some centres undefined)	0.5 µg/mL (≈ 0.828 µM)	0.5 µg/mL (≈ 0.828 µM)	0.25 µg/mL (≈ 0.414 µM)	0.0156 µg/mL (≈ 0.0258 µM)	0.5 µg/mL (≈ 0.828 µM)	>4	>4	0.5 µg/mL (≈ 0.828 µM)	–	–
C=C[C@]1(C)C[C@@H](OC(=O)CSc2nc(N)nc3c2ncn3C(=O)c2ccc(OC)cc2)[C@@]2(C)C3C(=O)CC[C@@]3(CC[C@H]2C)[C@@H](C)[C@@H]1O (some centres undefined)	0.5 µg/mL (≈ 0.755 µM)	0.125 µg/mL (≈ 0.189 µM)	0.25 µg/mL (≈ 0.378 µM)	< 0.0078 µg/mL	0.25 µg/mL (≈ 0.378 µM)	>4	>4	0.5 µg/mL (≈ 0.755 µM)	–	4
C=C[C@]1(C)C[C@@H](OC(=O)CSc2nc(NC(=O)CN3CCNCC3)nc3[nH]cnc23)[C@@]2(C)C3C(=O)CC[C@@]3(CC[C@H]2C)[C@@H](C)[C@@H]1O (some centres undefined)	32 µg/mL (≈ 48.9 µM)	64 µg/mL (≈ 97.9 µM)	16 µg/mL (≈ 24.5 µM)	4 µg/mL (≈ 6.12 µM)	32 µg/mL (≈ 48.9 µM)	>4	>4	32 µg/mL (≈ 48.9 µM)	–	–
C=C[C@]1(C)C[C@@H](OC(=O)CSc2nc(N)nc3c2ncn3C(=O)NCCc2ccccc2)[C@@]2(C)C3C(=O)CC[C@@]3(CC[C@H]2C)[C@@H](C)[C@@H]1O (some centres undefined)	–	–	–	< 0.0078 µg/mL	–	–	–	–	–	–
C=C[C@]1(C)C[C@@H](OC(=O)CSc2nc(N)nc3c2ncn3C(=O)Nc2ccccc2OC)[C@@]2(C)C3C(=O)CC[C@@]3(CC[C@H]2C)[C@@H](C)[C@@H]1O (some centres undefined)	0.125 µg/mL (≈ 0.185 µM)	0.25 µg/mL (≈ 0.369 µM)	0.125 µg/mL (≈ 0.185 µM)	0.0156 µg/mL (≈ 0.023 µM)	0.25 µg/mL (≈ 0.369 µM)	>4	>4	0.125 µg/mL (≈ 0.185 µM)	2	–
C=C[C@]1(C)C[C@@H](OC(=O)CSc2nc(N)nc3c2ncn3C(=O)c2ccc(C)cc2)[C@@]2(C)C3C(=O)CC[C@@]3(CC[C@H]2C)[C@@H](C)[C@@H]1O (some centres undefined)	0.125 µg/mL (≈ 0.194 µM)	0.25 µg/mL (≈ 0.387 µM)	0.125 µg/mL (≈ 0.194 µM)	0.0078 µg/mL (≈ 0.0121 µM)	0.125 µg/mL (≈ 0.194 µM)	>4	>4	0.125 µg/mL (≈ 0.194 µM)	–	–
C=C[C@]1(C)C[C@@H](OC(=O)CSc2nc(N)nc3c2ncn3C(=O)Nc2ccccc2Cl)[C@@]2(C)C3C(=O)CC[C@@]3(CC[C@H]2C)[C@@H](C)[C@@H]1O (some centres undefined)	0.125 µg/mL (≈ 0.183 µM)	0.125 µg/mL (≈ 0.183 µM)	0.0625 µg/mL (≈ 0.0917 µM)	0.0078 µg/mL (≈ 0.0114 µM)	0.125 µg/mL (≈ 0.183 µM)	>4	>4	0.25 µg/mL (≈ 0.367 µM)	4	–
C=C[C@]1(C)C[C@@H](OC(=O)CSc2nc(NC(=O)CNC3CCOCC3)nc3[nH]cnc23)[C@@]2(C)C3C(=O)CC[C@@]3(CC[C@H]2C)[C@@H](C)[C@@H]1O (some centres undefined)	0.5 µg/mL (≈ 0.748 µM)	16 µg/mL (≈ 23.9 µM)	1 µg/mL (≈ 1.5 µM)	2 µg/mL (≈ 2.99 µM)	0.5 µg/mL (≈ 0.748 µM)	>4	>4	8 µg/mL (≈ 12 µM)	–	–
